Experiments:
Type in all cases: cell-based
[1] = tested on: TRAP activity of RAW264.7 cells induced by RANKL; assay: TRAP activity assay; conditions: 10 ng/ml RANKL for 5 days, 10 μM
Method: 10^3 cells were plated per well in 96-well plates. […] When the reaction fluid became yellow, 0.1 M, 100 μl/well NaOH was added to terminate the reaction, and OD405 was examined in 37° C. b) 3 μl/well supernatant was examined by Bio-Red DC Protein Assay to detect the protein concentration.

[2] = tested on: RAW264.7 cells; assay: MTT assay, proliferation induced by RANKL; conditions: RAW264.7, 10 μM
Method: Cells were plated onto 96-well plates at a density of 10^3 cells per well. After 24 hours incubation, the different concentrations of the different drugs were administrated into the plates. […] Subsequently, the medium was removed, and 100 μl/well isopropanol was added to solved formazan. The plates were shaken for 15 minutes and stood for 15 minutes, and then the absorbance was measured at wavelength of 540 nm and 630 nm. The ratio of the absorbance of treated cells relative to that of the control cells was calculated and expressed as a percentage of cell survival.

[3] = tested on: RAW264.7 cells; assay: BrdU assay, proliferation induced by RANKL; conditions: RAW264.7, 10 μM
Method: The BrdU assay was followed the instructions of Cell Proliferation ELISA BrdU kit. 10^3 cells were plated per well in 96-well plates. […] After washing in wash buffer for three times, 100 μl/well Substrate reaction was added and incubated for 30 minutes at room temperature.

Structure (SMILES) | TRAP activity induced by RANKL [1] | cell proliferation induced by RANKL (MTT assay) [2] | cell proliferation induced by RANKL (BrdU assay) [3]
CCCc1nn(C)c2c(=O)[nH]c(-c3cc(S(=O)(=O)N4CCN(C)CC4)ccc3OCC)nc12 [sildenafil] | have no obviously inhibiting effect on TRAP activity induced by RANKL | – | –
Cn1c(=O)c2[nH]cnc2n(C)c1=O [theophylline] | have no obviously inhibiting effect on TRAP activity induced by RANKL | have no previous inhibiting effect on cell proliferation induced by RANKL | have no previous inhibiting effect on cell proliferation induced by RANKL

From patent publication US8507506B2, “Theophylline derivative inhibits osteoporosis” (Kaohsiung Medical University, priority 2011, dated 2013)
